Like-named read-outs stand apart in the source and are kept apart here.

The source of these data is patent EP4775208A1, “USE OF PRMT5 INHIBITOR IN TREATMENT OF TUMORS OR CANCERS” (Apeiron Therapeutics (Hong Kong) Ltd., priority 2023, dated 2025).

One assay has as its system LN18 MTAP(-/-) cells. As to the kind of experiment: Inhibition of proliferation of LN18 MTAP(-/-) cells (CellTiter-Glo). Type of assay: cell-based. As to conditions: cell proliferation, 7 days. The method, then:
Test 5: Assay for Inhibitory Activity of Compounds against LN18 MTAP(-/-) Cell Proliferation
Materials and Cells: The LN18 MTAP(-/-) cell line was provided by Cobioer Biosciences (China). Cell culture media, fetal bovine serum (FBS), and penicillin-streptomycin were purchased from Thermo Fisher Scientific (USA). 384-well plates were purchased from PerkinElmer (USA). The CellTiter-Glo assay kit was purchased from Promega (USA).
Cell Culture: LN18 MTAP(-/-) cells were cultured in a medium supplemented with 10% fetal bovine serum (FBS) and 1% penicillin-streptomycin at 37°C with 5% CO2. Only cells in the logarithmic growth phase were used for experiments.
(§1) Cell Proliferation Inhibition Assay: The antiproliferative activity of the compounds against LN18 MTAP(-/-) cells was assessed using the CellTiter-Glo assay kit. Cell suspensions were adjusted to the appropriate density and seeded into 384-well plates at a volume of 40 µL per well, then incubated overnight at 37°C with 5% CO2. Compounds (40 nL) were added to each well to achieve final concentrations ranging from 0 to 1,000 nM (starting concentration 1,000 nM, 3-fold serial dilutions, 9 dose points), with a final DMSO concentration of 0.25%. The cell plates were incubated at 37°C with 5% CO2 for 7 days. Subsequently, 40 µL of CellTiter-Glo reagent was added to measure cell viability.
Background: Cellular ATP, detected with luciferase, serves as a proxy for viable cell number.

In assay [1] the test system is HCT-116 MTAP(-/-) deficient cells. As to the kind of experiment: Inhibition of proliferation of HCT-116 MTAP(-/-) deficient cells (Cell-Titer Glo). The following applies: 8 days. Format: cell-based. Put shortly: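 Cells in log-phase growth, RPMI-1640 with 10% FBS, seeded and left overnight at 37°C, 5% CO2. Compound tested at 0–10,000 nM (10 points, 3-fold, 0.1% DMSO) for 8 days at 37°C, 5% CO2. Viability read by CellTiter-Glo luminescence.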

The next assay has as its system BxPc-3. As to the kind of experiment: Mini cell panel: inhibition of proliferation of BxPc-3 cells. Format: cell-based. The text has this:
(§2) Test 9: Mini Cell Panel: Assay for Inhibitory Activity of Compounds against Proliferation of 20 Tumor Cell Lines
(§3) Materials and Cells: Fifteen MTAP(-/-) cell lines and five MTAP wild-type cell lines were purchased from ATCC (USA). Cell culture media, fetal bovine serum (FBS), and penicillin-streptomycin were purchased from Thermo Fisher Scientific (USA). 384-well plates were purchased from PerkinElmer (USA). The CellTiter-Glo assay kit was purchased from Promega (USA). Paclitaxel was used as the control compound.

The subject of the next assay is LN-18. As to the kind of experiment: Mini cell panel: inhibition of proliferation of LN-18 cells. Type of assay: cell-based.
From the text: as §2, §3

The next assay relates to 15 MTAP(-/-) cell lines. As to the kind of experiment: Mini cell panel: summary over the MTAP(-/-) cell lines. Type of assay: cell-based. The following applies: for selectivity, calculated based on the median values: MTAP wild-type vs MTAP(-/-) cell lines.
From the text: as §2, §3

The next assay concerns SW1573. As to the kind of experiment: Mini cell panel: inhibition of proliferation of SW1573 cells. Type of assay: cell-based.
From the text: as §2, §3

A further assay relates to NCI-H838 MTAP(-/-) cells. As to the kind of experiment: Inhibition of proliferation of NCI-H838 MTAP(-/-) cells (CellTiter-Glo). As to conditions: read-out: IC50(nM) NCI-H838 MTAP(-/-).
In the next assay the test system is LU99 MTAP(-/-) cells. As to the kind of experiment: Inhibition of proliferation of LU99 MTAP(-/-) cells (CellTiter-Glo). Type of assay: cell-based. The following applies: cell proliferation, 6 days. How it is done: Test 3: Compound's inhibitory activity on proliferation of LU99 MTAP (-/-) cells.
Materials and Cells: The LU99 MTAP(-/-) cell line was purchased from Cobioer Biosciences (China). Cell culture media and fetal bovine serum (FBS) were purchased from Thermo Fisher Scientific (USA). 384-well plates were purchased from PerkinElmer (USA). The CellTiter-Glo assay kit was purchased from Promega (USA).
Cell Culture: LU99 MTAP(-/-) cells were cultured in a medium supplemented with 10% fetal bovine serum (FBS) at 37°C with 5% CO2. Only cells in the logarithmic growth phase were used for experiments.
as §1, with “against LU99” for “against LN18”, “nM, 2.5-fold” for “nM, 3-fold”, “dilutions, 10” for “dilutions, 9”, “of 0.2%.” for “of 0.25%.”, “for 6” for “for 7”

The mark [2] stands for this setting: Homo sapiens, BXPC-3, MTAP (-/-).
[3] abbreviates: Homo sapiens, LN-18, MTAP (-/-).
The mark [4] stands for this setting: read-out: median IC50, 15 MTAP(-/-) cell lines.
[5] abbreviates: Homo sapiens, SW1573, MTAP (-/-).

For the molecule `CN(C(=O)c1cc2c(cn1)nc(N)c1cncn12)[C@@H]1COc2cc(C(F)(F)F)ccc21` [Example 4, (S)-4-amino-N-methy 1-N-(6-(trifluoromethy 1)-2,3-dihydrobenzofuran-3-yl)imidazo[1,5-a]pyrido[3,4-e]pyrazine-8-carboxamide], the IC50 with LN18 MTAP(-/-) cells (Homo sapiens, LN-18, 168 h) is 7.85 nM; in assay [1] (Homo sapiens, HCT-116, 192 h) it was 9.9 nM; with BxPc-3 (setting [2]) it was 15.2 nM; in the assay with LN-18 (setting [3]), 7.8 nM; in the assay with 15 MTAP(-/-) cell lines (setting [4]), 38.8 nM; with 15 MTAP(-/-) cell lines (span over the cell lines, read-out: IC50 values (range) against the 15 MTAP(-/-) cell lines) it was no less than 2.4 nM. This molecule gave an IC50 in the assay with SW1573 (setting [5]) of 662 nM. The “selectivity, calculated based on the median values” (shortened to “selectivity, calculated based”) in the assay with 15 MTAP(-/-) cell lines was 44.2 fold.
In the case of `[2H]C([2H])([2H])N(C(=O)c1ccc2nc(N)c3cncn3c2c1)[C@@H]1COc2cc(C(F)(F)F)ccc21` [Example 16, (S)-4-amino-N-(methyl-d3)-N-(6-(trifluoromethyl)-2,3-dihydrobenzofuran-3-yl)imidaz o[1,5-a]quinoxaline-8-carboxamide], the IC50 was determined as 66.8 nM in the assay on NCI-H838 MTAP(-/-) cells (Homo sapiens, NCI-H838, 144 h); 12.9 nM with LU99 MTAP(-/-) cells (Homo sapiens, Lu-99, 144 h); 6.57 nM in the assay on LN18 MTAP(-/-) cells (Homo sapiens, LN-18, 168 h); 5.6 nM in assay [1] (Homo sapiens, HCT-116, 192 h).
On the same counts, the results for `[2H]C([2H])([2H])N(C(=O)c1cc2c(cc1F)nc(N)c1cncn12)[C@@H]1COc2cc(C(F)(F)F)ccc21` [Example 41, (S)-4-amino-7-fluoro-N-(methyl-d3)-N-(6-(trifluoromethyl)-2,3-di hydrobenzofuran-3-yl)imidazo[1,5-a]quinox aline-8-carboxamide] are 57.6 nM, 9.56 nM, 14.5 nM and 11 nM.
With `CN(C(=O)c1ccc2nc(N)c3cncn3c2c1)[C@@H]1COc2cc(C(F)(F)F)ccc21` [Example 107, (S)-4-amino-N-methy 1-N-(6-(trifluoromethy 1)-2,3-dihydrobenzofuran-3-yl)imidazo[1,5-a]quinoxaline-8-carboxamide], the IC50 in the assay with NCI-H838 MTAP(-/-) cells (Homo sapiens, NCI-H838, 144 h) was 67.8 nM; with LU99 MTAP(-/-) cells (Homo sapiens, Lu-99, 144 h) it was 13.2 nM; in the assay on LN18 MTAP(-/-) cells (Homo sapiens, LN-18, 168 h), 11.1 nM; in assay [1] (Homo sapiens, HCT-116, 192 h), 7.4 nM; in the assay on BxPc-3 (setting [2]), 32.7 nM; in the assay on LN-18 (setting [3]), 9.4 nM. The IC50 in the assay on 15 MTAP(-/-) cell lines (setting [4]) worked out at 56.6 nM; in the assay with SW1573 (setting [5]), 44.4 nM. Further, the “selectivity, calculated based” value in the assay on 15 MTAP(-/-) cell lines is listed as 58.8 fold.
Regarding “(S)-4-amino-7-fluoro-N-methyl-N-(6-(triflu oromethyl)-2,3-dihydr obenzofuran-3-yl)imi dazo[1,5-a]quinoxalin e-8-carboxamide [Example 29]”, the IC50 in the assay with NCI-H838 MTAP(-/-) cells (cell proliferation, 6 days, CellTiter-Glo) amounted to 76.8 nM; in the assay on LU99 MTAP(-/-) cells, 10.7 nM; with LN18 MTAP(-/-) cells, 5.42 nM; in assay [1], 7.1 nM; with BxPc-3 (MTAP (-/-)), 57.2 nM; in the assay with LN-18 (MTAP (-/-)), 5.4 nM. Besides, the IC50 was found to be 42.4 nM in the assay with 15 MTAP(-/-) cell lines (setting [4]) and 47.3 nM in the assay on SW1573 (MTAP (-/-)). Moreover, the “selectivity, calculated based” value with 15 MTAP(-/-) cell lines is recorded as 77.7 fold.
